Measured values reported in publication PMC5650337, “A peptidomimetic with a chiral switch is an inhibitor of epidermal growth factor receptor heterodimerization” (Oncotarget, 2017).
Where a SMILES comes first, the peptide text is derived from it.

Key:
[1] = target: T1, HER2:HER3 heterodimer in SKBR-3 cells (Homo sapiens, UniProt P04626); experiment: Proximity ligation assay (PLA); format: cell-based; details: 0.5 and 1 µM
T1 construct: indicating HER2:HER3 dimerization in SKBR-3 cells; host or cells: SKBR-3
Protocol: (§1) Proximity ligation assay was performed as described previously. […] Fixed cells were used for PLA assay. Cells were incubated with primary antibodies for 24 h and washed, and secondary antibodies PLA+ and PLA− were added. After incubation and washing, PLA detection reagent was added, and the cells were covered with a glass plate after mounting medium was added. Slides were viewed using an inverted microscope and a multiphoton microscope. Images were obtained at 40 and 60X.

[2] = target: T2, EGFR:HER2 heterodimer in SKBR-3 cells (Homo sapiens, UniProt P04626); experiment: Proximity ligation assay (PLA); format: cell-based; details: 0.5 and 1 µM
T2 construct: we probed for HER2:EGFR dimers with PLA probes in SKBR-3 cells; host or cells: SKBR-3
Protocol: as §1

BT-474 breast tumors = experiment: Xenograft model of breast cancer; format: in vivo, athymic nude mice; details: BT-474 xenograft, 19 days; 18 and 9 4 mg/kg twice a week intratumor; lapatinib 10 mg/kg once a week i.p.
Protocol: All animals were handled according to the approved protocol from IACUC at the University of Louisiana at Monroe. Athymic nude mice (Foxn1nu/Foxn1+, female, 4–5 weeks) were purchased from Harlan Laboratories (Indianapolis, IN) and maintained in the ULM School of Pharmacy vivarium. After acclimatization of animals to the local environment, estrogen (17β-estradiol) pellets (0.72 mg, 90-day release) were implanted subcutaneously in the mice, under anesthesia. Tumors were induced in mice as described previously. Orthotopic injection of about three-million BT-474 cells suspended in the serum-free RPMI-1640 medium was done at the second left mammary fat pad. Mice were observed every day for tumor formation, and the tumor diameter was measured with calipers, and the tumor volume was calculated. When a tumor diameter of 3 mm was achieved, mice were randomly assigned to four groups of six. These groups contain negative control (vehicle control), positive control (lapatinib), and two treatment groups (compound 9 and 18). The mice were treated for 19 days. Compound 18 was administered near the base of the tumor at a dose of 4 mg/kg twice a week. Control groups received intratumor saline injections twice a week, and lapatinib was administered at 10 mg/kg once a week by intraperitoneal injection. The marker to end the experiments was based on tumor doubling time rather than tumor volume. Since tumor doubling time was 4 times in 19 days, experiments were stopped on the 19th day. Tumor-bearing mice were sacrificed, and three tumors per group were harvested and maintained at –80°C and the remaining three tumors were fixed in paraffin blocks. Microsections (5 µm) of paraffin fixed tumors were stained with hemotoxylin and eosin (H&E) and observed for necrosis by a pathologist. All data are presented as the mean ± SE. Statistical differences were evaluated by Mann-Whitney U test as well as one-way ANOVA analysis of data from different groups, and the criterion for statistical significance was p < 0.05.

[3] = target: T3, HER2:HER3 heterodimerization in tumor sections (Homo sapiens, UniProt P04626); experiment: PLA on xenograft tumor sections; format: in vivo, athymic nude mice
T3 construct: from tissue; host or cells: BT-474 xenograft tumours grown in athymic nude mice
Protocol: Western blot and PLA assay were carried out on tumor sections as described before. Immunoblot analysis was performed to evaluate the levels of total HER2 and phosphorylated HER2. Tumor sections were deparaffinized using xylene and rehydrated with decreasing concentrations of ethanol. Antigen retrieval on the microsections of the breast tumors was done in a steaming sodium citrate buffer (10 mM, 0.05% Tween-20, pH 6.0) for 5 min. The tumor sections were then used to analyze inhibition of HER2:HER3 dimerization using PLA.

MCF-7 cells = experiment: Antiproliferative activity (CellTiter-Glo); format: cell-based
Source text: (§2) Erlotinib was from Sigma (Sigma-Aldrich Chemie GmbH).

[4] = test system: MCF-10A normal breast epithelial cell line; experiment: Antiproliferative activity (CellTiter-Glo); format: cell-based
Source text: as §2

domain IV of HER2 = domain IV of HER2 (Homo sapiens, UniProt P04626); experiment: Surface plasmon resonance analysis; format: binding; details: protein immobilized on CM5 chip
Protocol: (§3) Surface plasmon resonance analysis was performed using GE X100. Extracellular domains of proteins HER2, EGFR, HER3, and HER4 purchased from Leinco Technologies (St. Louis, MO). […] Compound 18 and controls were used as analytes. Compound 18 at different concentrations (0 to 200 µM) was passed through an SPR chip, and binding kinetics were analyzed for each of the EGFR bindings. A blank subtracted sensorgram for compound 18 was represented.

[5] = target: T4, HER2 ECD (domains I to IV) (Homo sapiens, UniProt P04626); experiment: Surface plasmon resonance analysis; format: binding
T4 construct: Extracellular domains of proteins HER2, EGFR, HER3, and HER4 purchased from Leinco Technologies; purchased Leinco Technologies (St. Louis, MO)
Protocol: as §3

EGFR = target: T5, EGFR (Homo sapiens, UniProt P00533); experiment: Surface plasmon resonance analysis; format: binding; details: data not shown
T5 construct: Extracellular domains of proteins HER2, EGFR, HER3, and HER4 purchased from Leinco Technologies; purchased Leinco Technologies (St. Louis, MO)
Protocol: as §3

HER3 = target: T6, HER3 (Homo sapiens, UniProt P21860); experiment: Surface plasmon resonance analysis; format: binding; details: data not shown
T6 construct: Extracellular domains of proteins HER2, EGFR, HER3, and HER4 purchased from Leinco Technologies; purchased Leinco Technologies (St. Louis, MO)
Protocol: as §3

HER4 = target: T7, HER4 (Homo sapiens, UniProt Q15303); experiment: Surface plasmon resonance analysis; format: binding; details: data not shown
T7 construct: Extracellular domains of proteins HER2, EGFR, HER3, and HER4 purchased from Leinco Technologies; purchased Leinco Technologies (St. Louis, MO)
Protocol: as §3

SKBR-3 cells = experiment: TUNEL assay; format: cell-based; details: 5 and 10 µM
Protocol: Ten thousand SKBR-3 cells were added to each well of Lab-Tek® 8-chamber slides and incubated overnight for cell attachment. […] Cells were washed twice with cold PBS. Cell fixation was achieved using 10% buffered formalin followed by permeabilization of membranes using 0.2% Triton X-100 in PBS at room temperature. 100 µL of rTdT reaction mix containing biotinylated nucleotide mix was added. The slide was placed in a humidity chamber and incubated for 60 min at 37°C. With the addition of dilute saline-sodium citrate (SSC) solution (20X provided with the kit diluted to 2X), the reaction was stopped. Three PBS washes were made to ensure the removal of remaining unincorporated biotinylated nucleotides on the slide. Treatment with 0.3% hydrogen peroxide was done to block the endogenous peroxidases in the cells. The slide was incubated for 30 min at room temperature with dilute streptavidin HRP solution (1:500 in PBS). Diaminobenzidine (DAB) was added to stain the slide. After drying, DAPI was used to counterstain the nuclei, and images were obtained using a Nikon Eclipse TS100. The number of cells that had undergone apoptosis was counted and quantified.

T4 sequence (P04626 23-652 limits assumed): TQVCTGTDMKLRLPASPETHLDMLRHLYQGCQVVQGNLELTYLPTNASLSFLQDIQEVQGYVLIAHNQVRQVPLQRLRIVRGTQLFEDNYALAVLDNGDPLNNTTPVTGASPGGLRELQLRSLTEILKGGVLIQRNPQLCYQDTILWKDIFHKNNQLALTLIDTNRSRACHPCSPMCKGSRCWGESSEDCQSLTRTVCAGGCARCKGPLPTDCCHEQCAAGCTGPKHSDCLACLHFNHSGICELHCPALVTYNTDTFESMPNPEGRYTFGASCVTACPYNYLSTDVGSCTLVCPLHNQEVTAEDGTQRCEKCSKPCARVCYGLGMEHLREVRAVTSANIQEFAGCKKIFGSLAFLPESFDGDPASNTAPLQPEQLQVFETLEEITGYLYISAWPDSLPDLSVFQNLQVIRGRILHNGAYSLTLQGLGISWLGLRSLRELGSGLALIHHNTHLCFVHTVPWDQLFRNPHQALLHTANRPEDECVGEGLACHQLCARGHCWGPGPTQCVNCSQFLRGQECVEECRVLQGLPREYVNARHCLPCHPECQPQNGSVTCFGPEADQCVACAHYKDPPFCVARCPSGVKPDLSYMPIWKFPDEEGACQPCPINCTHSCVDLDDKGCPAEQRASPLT
T6 sequence (P21860 20-643 limits assumed): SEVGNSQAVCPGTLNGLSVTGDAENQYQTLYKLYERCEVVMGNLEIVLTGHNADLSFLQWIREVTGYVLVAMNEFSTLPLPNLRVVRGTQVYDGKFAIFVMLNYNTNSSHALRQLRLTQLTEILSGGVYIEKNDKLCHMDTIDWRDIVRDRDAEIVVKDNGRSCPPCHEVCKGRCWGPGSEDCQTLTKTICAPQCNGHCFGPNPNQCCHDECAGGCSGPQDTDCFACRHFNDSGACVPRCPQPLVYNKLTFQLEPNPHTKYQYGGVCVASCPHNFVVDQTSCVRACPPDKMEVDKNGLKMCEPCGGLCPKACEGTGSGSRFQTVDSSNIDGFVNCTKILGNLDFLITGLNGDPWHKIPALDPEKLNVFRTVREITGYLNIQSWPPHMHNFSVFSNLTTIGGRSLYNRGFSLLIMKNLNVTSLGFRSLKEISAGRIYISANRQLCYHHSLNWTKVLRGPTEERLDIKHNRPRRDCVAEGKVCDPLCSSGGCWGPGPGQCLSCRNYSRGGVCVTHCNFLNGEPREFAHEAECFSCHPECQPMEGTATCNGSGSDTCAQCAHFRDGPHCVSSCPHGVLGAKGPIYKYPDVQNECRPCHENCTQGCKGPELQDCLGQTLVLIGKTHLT
Sequence of domain IV of HER2 (P04626 511-652 limits assumed): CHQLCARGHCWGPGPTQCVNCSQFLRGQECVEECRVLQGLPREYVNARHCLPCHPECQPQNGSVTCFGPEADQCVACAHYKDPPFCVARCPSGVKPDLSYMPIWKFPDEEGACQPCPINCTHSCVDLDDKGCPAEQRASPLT
T2 sequence (P04626 23-1255, one chain of several): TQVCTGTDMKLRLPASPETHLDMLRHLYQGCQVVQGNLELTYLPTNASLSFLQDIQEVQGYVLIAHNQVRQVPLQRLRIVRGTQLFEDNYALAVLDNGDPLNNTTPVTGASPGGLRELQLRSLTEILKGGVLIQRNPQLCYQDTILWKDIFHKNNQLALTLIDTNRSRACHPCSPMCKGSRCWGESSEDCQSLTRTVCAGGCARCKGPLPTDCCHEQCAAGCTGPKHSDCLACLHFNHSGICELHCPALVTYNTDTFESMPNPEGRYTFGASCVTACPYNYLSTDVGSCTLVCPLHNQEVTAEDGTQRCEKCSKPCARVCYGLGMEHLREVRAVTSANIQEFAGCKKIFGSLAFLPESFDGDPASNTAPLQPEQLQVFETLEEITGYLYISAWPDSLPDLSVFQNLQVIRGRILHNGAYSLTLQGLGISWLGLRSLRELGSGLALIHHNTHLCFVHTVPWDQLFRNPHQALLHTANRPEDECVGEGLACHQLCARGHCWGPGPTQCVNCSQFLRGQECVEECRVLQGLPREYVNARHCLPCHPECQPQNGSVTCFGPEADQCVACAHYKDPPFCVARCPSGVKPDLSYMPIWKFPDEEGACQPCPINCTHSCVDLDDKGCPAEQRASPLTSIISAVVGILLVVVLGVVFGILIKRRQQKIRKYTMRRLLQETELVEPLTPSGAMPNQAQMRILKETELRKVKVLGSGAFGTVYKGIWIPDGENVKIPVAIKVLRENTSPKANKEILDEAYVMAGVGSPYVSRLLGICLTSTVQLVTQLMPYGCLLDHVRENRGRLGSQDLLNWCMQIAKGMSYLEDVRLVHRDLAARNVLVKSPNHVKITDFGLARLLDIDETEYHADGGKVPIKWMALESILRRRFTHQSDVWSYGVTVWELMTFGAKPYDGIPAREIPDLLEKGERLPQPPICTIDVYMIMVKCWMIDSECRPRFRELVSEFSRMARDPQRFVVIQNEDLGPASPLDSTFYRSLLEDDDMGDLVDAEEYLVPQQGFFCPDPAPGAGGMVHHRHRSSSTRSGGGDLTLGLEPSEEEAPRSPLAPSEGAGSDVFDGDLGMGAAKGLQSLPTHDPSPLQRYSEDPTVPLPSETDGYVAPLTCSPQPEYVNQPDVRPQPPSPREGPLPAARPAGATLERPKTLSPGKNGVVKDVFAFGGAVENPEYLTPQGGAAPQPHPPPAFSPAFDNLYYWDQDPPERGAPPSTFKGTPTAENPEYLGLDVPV
T1 sequence (P04626 23-1255, one chain of several): as above
T3 sequence (P04626 23-1255, one chain of several): as above

N=C(N)NCCC[C@@H]1NC(=O)[C@H]2CCCN2C(=O)[C@@H]2CCCN2C(=O)[C@H](CCCNC(=N)N)NC(=O)C[C@H](c2cccc3ccccc23)NC(=O)[C@H](Cc2ccccc2)NC(=O)[C@H](CC(=O)O)NC(=O)[C@H](CC(=O)O)NC(=O)[C@H](Cc2ccccc2)NC(=O)C[C@H](c2cccc3ccccc23)NC1=O [compound 18, Cyclo(1,10)P^1p^2R^3(R-Anapa)^4F^5D^6D^7F^8(R-Anapa)^9R^10] (HELM PEPTIDE1{P.[dP].R.[O=C(C[C@@H](N[*:1])c1cccc2ccccc12)[*:2]].F.D.D.F.[O=C(C[C@@H](N[*:1])c1cccc2ccccc12)[*:2]].R}$PEPTIDE1,PEPTIDE1,1:R1-10:R2$$$V2.0)
Inhibition of HER2:HER3 heterodimerization (PLA) [1]: inhibits heterodimerization in a concentration-dependent manner | Inhibition of EGFR:HER2 heterodimerization (PLA) [2]: inhibits both EGFR:HER2 and HER2:HER3 dimerization | Tumor growth versus vehicle (BT-474 breast tumors): delay in tumor growth and tumor size | HER2:HER3 heterodimerization in tumor sections (PLA) [3]: diminished red fluorescence signals | Synergistic effect with erlotinib (isobologram) (MCF-7 cells; MCF-7, compound 18 plus erlotinib): no synergistic effect | IC50 (MCF-7 cells; breast cancer cells that do not overexpress HER2, 72 h): > 50000 nM | Activity in MCF-10A relative to Calu-3 (times less) ([4]; IC50 MCF-10A vs Calu-3): ~2000 times | Activity in MCF-10A relative to SKBR-3 (times less) ([4]; IC50 MCF-10A vs SKBR-3): ~200 times | SPR binding to HER2 domain IV (domain IV of HER2): concentration-dependent binding | koff ([5]; SPR, 1:1 binding Langmuir fit): 5.97 s⁻¹ | kon ([5]; SPR, 1:1 binding Langmuir fit): 4.76e+07 M⁻¹ s⁻¹ | Kd ([5]; calculated from kon and koff): 125 nM | SPR binding to HER2 ECD ([5]; protein immobilized on CM5 chip, substance as analyte): concentration-dependent binding | SPR binding to EGFR (EGFR): did not indicate any significant change in response | SPR binding to HER3 (HER3): did not indicate any significant change in response | SPR binding to HER4 (HER4): did not indicate any significant change in response | Apoptosis (TUNEL staining) (SKBR-3 cells): positive staining for apoptosis
